In patent publication US10421782B2, “Cyclic cationic peptides with antimicrobial activity” (I.C.F. S.R.L., priority 2012, dated 2019):
Values after ≈ are worked out from the molar mass of the structure shown. Values joined by “and” are separate entries in the source; they are usually repeats but may differ in a detail not shown here. Equal entries are not always repeated. Where two headings read alike, the source gives them in different places. Where a SMILES comes first, the peptide text is derived from it. Bridges are numbered along the chain shown (N, C = ends).

Key:
E. coli ML-35pYC = assay: Membrane permeabilization assay (CENTA / ONPG kinetics); type: cell-based, Escherichia coli; conditions: peptide 12.5 μg/ml, logistic 4-parameter fit, read up to 240 min; for Inflexion point CENTA: CENTA substrate (periplasmic beta-lactamase)
Method: The strain ML-35pYC of E. coli was used to assay the kinetics of membrane permeabilization performed by the peptides of the invention. This bacterial strain expresses resistance to ampicillin, constitutive expression of cytoplasmic beta-galactosidase, and is engineered with a plasmid for the synthesis of a periplasmic beta-lactamase. Sixty microliters (60 μl) of bacterial suspension of strain ML-35pYC of E. coli were added to 60 μl of a 15 mM solution of ONPG or 1.5 mM of CENTA in phosphate buffer. Subsequently, 120 μl of the test peptides were added to obtain a final concentration of 12.5 μg/ml. The kinetics of the reaction was evaluated by recording the value of absorbance at […] and 405 nm, for ONPG and CENTA respectively, every 10 min up to a maximum of 240 min.
By “fitting” the experimental points with the logistic 4-parameter curve, it was possible to determine the inflexion point, that is the point where the curve changes direction, relative to the 3 test peptides. No inflexion point was observed during the assay with CENTA (inflexion point higher than 500 min).

[1] = system: meticillin-resistant S. aureus ATCC 43300; assay: Broth-microdilution test and subsequent plating on agar, Gram-positive bacteria; type: cell-based, Staphylococcus aureus; conditions: 2 h contact at 37° C., CFU count after 24 h
Method: (§1) For each bacterial strain, 3-5 morphologically similar colonies were drawn from fresh cultures, inoculated in Brain Hearth Infusion broth liquid medium and incubated at the temperature of 37° C. under shaking at 225 r.p.m. for 3-4 h. Subsequently, the bacterial suspension was centrifuged at 1000 g for 20 min and the thus obtained pellet was resuspended in phosphate buffer 10 mM. Turbidity was measured in a spectrophotometer with absorbance at 600 nm, equivalent in the range 0.08-0.13 to a concentration of about 10^8 CFU/ml. The bacterial suspension was diluted 1:100 in phosphate buffer 10 mM, and within 30 min, 50 microliters of such bacterial suspension (10^6 CFU/ml) were inoculated in each well of the microtiter plate, to obtain a final bacterial concentration of about 5×10^5 CFU/ml.
(§2) Several synthetic peptides were tested for their ability to inhibit bacterial growth. Fifty microliters of peptide at a concentration comprised between about 0.2 mM and about 50 mM were added to 96-well U-bottom plates containing phosphate buffer and one of the following bacteria: S. aureus ATCC 25923, meticillin-resistant S. aureus ATCC 43300. After 2 hour incubation at 37° C., bacteria were transferred on a solid medium. As a control, the bacterial cultures were cultured in the absence of peptide.
(§3) The bacterial suspension was put in contact for two hours with different concentrations of the peptide at the temperature of 37° C. After incubation, 20 μl were drawn from the wells of each dilution and seeded on solid medium, Columbia agar supplemented with 5% bovine red blood cells for Gram-positive bacteria. The inoculum was evenly distributed on the agarized medium by means of a sterile disposable loop. After incubation for 24 hours at the temperature of 37° C., counting of the bacterial colonies (CFU) was performed.

S. aureus ATCC 25923 = assay: as above; type: cell-based, Staphylococcus aureus; conditions: meticillin-sensitive, 2 h contact at 37° C., CFU count after 24 h
Method: as §1, §2, §3

[2] = system: Escherichia coli ATCC 25922; type: cell-based; conditions: for LD90 E. coli ATCC 25922: 2 h contact at 37° C., CFU count after 24 h
Method: as §1, with “min” for “min,”
(§4) Several peptides were tested for their ability to inhibit bacterial growth in liquid culture. Fifty microliters of peptide at a concentration comprised between about 0.2 mM and 50 mM were added in 96-well U-bottom plates containing liquid growth medium and one of the following bacteria: Escherichia coli ATCC 25922, P. aeruginosa ATCC 27853, Stenotrophomonas maltophilia ATCC 13637. After 2 hour incubation at 37° C., bacteria were transferred on a solid medium. As a growth control, bacterial cultures were cultured in the absence of peptides.
as §3, with “medium,” for “medium, Columbia”, “agar McConkey.” for “agar supplemented with 5% bovine red blood cells for Gram-positive bacteria.”, “24 h” for “24 hours”

[3] = system: Pseudomonas aeruginosa ATCC 27853; type: cell-based; conditions: for LD90 P. aeruginosa ATCC 27853: 2 h contact at 37° C., CFU count after 24 h
Method: as §1, with “min” for “min,”
as §4
as §3, with “medium,” for “medium, Columbia”, “agar McConkey.” for “agar supplemented with 5% bovine red blood cells for Gram-positive bacteria.”, “24 h” for “24 hours”

[4] = system: Stenotrophomonas maltophilia ATCC 13637; assay: Broth-microdilution test and subsequent plating on agar, Gram-negative bacteria; type: cell-based; conditions: 2 h contact at 37° C., CFU count after 24 h
Method: as §1, with “min” for “min,”
as §4
as §3, with “medium,” for “medium, Columbia”, “agar McConkey.” for “agar supplemented with 5% bovine red blood cells for Gram-positive bacteria.”, “24 h” for “24 hours”

[5] = system: Candida albicans ATCC 10231; assay: Broth-microdilution test and subsequent plating on agar, fungi (yeasts); type: cell-based; conditions: 2 h contact at 37° C., CFU count on agar Sabouraud
Method: (§5) The inoculum was set up by culturing Candida albicans ATCC 10231 and Malassezia pachydermatis ATCC 14522 in Czapek-Dox broth medium (DIFCO) for 48-72 h. On the assay day, the fungal culture was centrifuged at 1700×g for 15 min, the pellet was resuspended in phosphate buffer and submitted to shaking by the use of an electric vortex to disperse the fungal cell aggregates. The suspension was diluted until an optical density equal to an opacity of 0.5 on the McFarland turbidimetric scale was reached, which contains approximately 1-5×10^6 cell/ml (Branda J. A., Krantz A. Effectc of yeast on automated cell counting. Am J Clin Pathol., 2006:126, 248-254).
(§6) The peptides were tested for their ability to inhibit fungal growth. Fifty microliters of peptide at a concentration comprised between about 0.2 mM and about 50 mM were added in 96-well U-bottom plates containing phosphate buffer and one of the following fungi: Candida albicans ATCC 10231 and Malassezia pachydermatis ATCC 14522. After 2 h incubation at 37° C., fungi were transferred on the solid medium agar Sabouraud. As a control, fungal cultures were cultured in the absence of peptide.
(§7) The fungal suspension was put in contact for two hours with different concentrations of the peptide at the temperature of 37° C. After incubation, 20 μl were drawn from the wells of each dilution and seeded on the solid medium agar Sabouraud. The inoculum was evenly distributed on the agarized medium by means of a sterile disposable loop. After incubation for 24 h at the temperature of 37° C., counting of the fungal colonies (CFU) was performed.

[6] = system: Malassezia pachydermatis ATCC 14522; assay: as above; type: cell-based; conditions: 2 h contact at 37° C., CFU count on agar Sabouraud
Method: as §5, §6, §7

Jurkat cells = assay: Cytotoxicity of peptides against Jurkat cells (Trypan Blue); type: cell-based; conditions: 20 μM
Method: Cytotoxicity of the peptides against T lymphocytes, for example Jurkat cells, was determined seeding the cells at a density of about 5*10^5 cells/ml in the presence and in the absence of peptides and incubating overnight at 37° C. in thermostat under CO2. As a negative cytotoxicity control, a medium lacking the test peptide was used, while as a positive cytotoxicity control, a medium containing 0.2% Triton X-100 was used, to completely lyse the cells. The cell viability was subsequently determined by adding 20 μl of Trypan Blue in each well, and by incubation of the cells for additional 5 min a 37° C. MCC10 value was calculated as the minimum peptide concentration necessary to induce 10% of cytotoxicity.

Compound | Inflexion point CENTA (E. coli ML-35pYC) | LD90 MRSA ATCC 43300 [1] | LD90 S. aureus ATCC 25923 (S. aureus ATCC 25923) | LD90 E. coli ATCC 25922 [2] | MBC E. coli ATCC 25922 [2] | LD90 P. aeruginosa ATCC 27853 [3] | MBC P. aeruginosa ATCC 27853 [3] | LD90 S. maltophilia ATCC 13637 [4] | LD90 Candida albicans [5] | LD90 Malassezia pachydermatis [6] | other results
CC(C)C[C@@H]1NC(=O)CNC(=O)[C@H](CCCNC(=N)N)NC(=O)[C@H](C(C)C)NC(=O)[C@H](CCCCN)NC(=O)[C@H](C(C)C)NC(=O)[C@H](CC(C)C)NC(=O)[C@H](C)NC(=O)[C@@H](NC(=O)CNC(=O)[C@@H](N)CCCCN)CSSC[C@@H](C(=O)N[C@@H](CCCCN)C(=O)O)NC(=O)[C@H](C(C)C)NC(=O)[C@H](CCCCN)NC(=O)[C@H](CC(C)C)NC(=O)[C@H]([C@@H](C)O)NC1=O (relative stereo) [Peptide P72, LYS*GLY*CYS*ALA*LEU*VAL*LYS*VAL*ARG*GLY*LEU*THR*LEU*LYS*VAL*CYS*LYS] | >500 min | 0.90 µM | 3.39 µM | 0.86 µM | 9.68 mg/L (≈ 5.34 µM) | 0.87 µM | 2.84 mg/L (≈ 1.57 µM) | 1.88 µM | 1.03 µM | 0.68 µM | Inflexion point ONPG (E. coli ML-35pYC; ONPG substrate (cytoplasmic beta-galactosidase)): 7.86 min; LD90 MRSA ATCC 43300 ([1]; listed as 72): 0.90 μM and 1.65 μg/ml; LD90 S. aureus ATCC 25923 (S. aureus ATCC 25923; listed as 72): 3.39 μM and 6.16 μg/ml; LD90 E. coli ATCC 25922 ([2]; listed as 72): 1.69 μg/ml and 0.86 μM; LD90 P. aeruginosa ATCC 27853 ([3]; listed as 72): 0.87 μM and 1.61 μg/ml; LD90 S. maltophilia ATCC 13637 ([4]; listed as 72): 1.88 μM and 3.42 μg/ml; LD90 Candida albicans ([5]; listed as 72): 1.03 μM and 1.87 μg/ml; LD90 Malassezia pachydermatis ([6]; listed as 72): 0.68 μM and 1.24 μg/ml
CC[C@H](C)[C@@H]1NC(=O)[C@H](Cc2ccccc2)NC(=O)[C@H](CCCCN)NC(=O)[C@H](C(C)C)NC(=O)CNC(=O)[C@H](CCCNC(=N)N)NC(=O)[C@H](Cc2c[nH]c3ccccc23)NC(=O)[C@H](CCC(N)=O)NC(=O)[C@H](Cc2c[nH]c3ccccc23)NC(=O)[C@H](CCCCN)NC(=O)[C@H](CCCNC(=N)N)NC(=O)[C@@H](NC(=O)[C@H](Cc2c[nH]c3ccccc23)NC(=O)[C@@H](N)CCCCN)CSSC[C@@H](C(=O)N[C@H](C(=O)O)C(C)C)NC(=O)[C@H](CCCCN)NC1=O (relative stereo) [Peptide P126, LYS*TRP*CYS*ARG*LYS*TRP*GLN*TRP*ARG*GLY*VAL*LYS*PHE*ILE*LYS*CYS*VAL] | >500 min | >70 µM | 4.68 µM | 0.91 µM | 12.5 mg/L (≈ 5.56 µM) | 0.20 µM | 4.53 mg/L (≈ 2.01 µM) | 6.65 µM | 1.98 µM | 0.75 µM | LD90 MRSA ATCC 43300 ([1]; listed as 126): about 71 μM and ~100 μg/ml; LD90 S. aureus ATCC 25923 (S. aureus ATCC 25923; listed as 126): 4.68 μM and 9.54 μg/ml; LD90 E. coli ATCC 25922 ([2]; listed as 126): 1.86 μg/ml and 0.91 μM; LD90 P. aeruginosa ATCC 27853 ([3]; listed as 126): 0.20 μM and 0.4 μg/ml; LD90 Candida albicans ([5]; listed as 126): about 2 μM
CC[C@H](C)[C@@H]1NC(=O)CNC(=O)[C@H](CCCNC(=N)N)NC(=O)[C@H](Cc2ccc(O)cc2)NC(=O)[C@@H]2CSSC[C@H](NC1=O)C(=O)N[C@@H](Cc1ccc(O)cc1)C(=O)N[C@@H](CCCNC(=N)N)C(=O)N[C@@H](CCCNC(=N)N)C(=O)N[C@H](C(=O)N[C@@H](CCCNC(=N)N)C(N)=O)CSSC[C@H](NC(=O)[C@H](Cc1c[nH]c3ccccc13)NC(=O)[C@@H](N)CCCCN)C(=O)N[C@@H](Cc1ccccc1)C(=O)N[C@@H](CCCNC(=N)N)C(=O)N[C@@H](C(C)C)C(=O)N2 [tachyplesin-1] (H-KWCFRVCYRGICYRRCR-NH2; disulfide 3-16, 7-12) | – | – | – | – | – | – | – | – | – | – | death of the cells (Jurkat) (Jurkat cells): 10%
